Here are results for 1 compound from patent US8557804B2, “Nicotinic receptor agonists for the treatment of inflammatory diseases” (priority 2002, dated 2013).

Molecules are shown by their SMILES. Several values for one entry are separate records, joined by “and”; a condition that tells them apart may be missing. Identical values can stand only once.

Assay [1] has as its system TNF release by human blood monocytes. The experiment in a line: cells. Format: cell-based. As to conditions: 40 μM, mean of 5 subjects. How it is done: Human monocytes were isolated from the blood of asthmatic patients by Ficoll-paque density gradient, let to adhere to tissue culture plates and stimulated with LPS (100 ng/ml) for 18 hours at 37° C. with or without increasing concentrations of nicotine. The release of TNF, a potent pro-inflammatory mediator, was measured in the cell culture supernatant by the ELISA method. Results are expressed as a percentage release from LPS-stimulated untreated cells (FIG. 28).
Tumor necrosis factor (TNF) is a mediator released in inflammatory states.
Human blood monocytes were isolated by Ficoll-paque density gradient, let to adhere to tissue culture plates and stimulated with LPS (100 ng/ml) for 18 hours at 37° C. with or without increasing concentrations of nicotine analogues.

Assay [2] has as its system collagen 1A mRNA expression by normal human lung fibroblasts. The experiment in a line: Collagen A1 gene expression by RT-PCR in primary normal lung fibroblasts. Format: cell-based. As to conditions: primary normal fibroblasts, RT-PCR. The protocol: Asthma is characterized by airway structural changes, including sub-epithelial collagen deposition, that may be a cause for the chronicity of the disease. An imbalance between collagen synthesis and its degradation by fibroblasts may be involved in this process (56). In preliminary experiments, we investigated the effects of nicotinic agonists on collagen A1 synthesis produced by primary normal fibroblasts. Collagen A1 gene expression was evaluated by RT-PCR.
The results are expressed percentage gene expression in agonists treated cells compared to non-treated cells.

Assay [3] concerns IL-10 mRNA expression in AMJ2-C11 cells. The experiment in a line: IL-10 mRNA expression by RT-PCR in AMJ2-C11 cells. The assay is classed as cell-based, mouse. As to conditions: SR-stimulated 24 h, 80 μM. How it is done: (§1) The effect of nicotine or DMPP treatment on AMJ2-C11 cells was tested on TNF-α, IL-10 mRNA expression by RT-PCR. These cytokines are involved in the development of pulmonary inflammatory diseases such as HP, asthma and sarcoidosis (52-55). […] Reference is made to FIG. 3 where results are expressed as a % of expression, 100% being attributed to the LPS alone group. The intensity of the band was obtained by dividing the intensity of the TNF-α band by that of β-actin. […] Reference is made to FIG. 4 where results are expressed as described in FIG. 5.

For assay [4], the system named is allergic inflammation of the lungs in ovalbumin-sensitized mice. The experiment in a line: Ovalbumin-sensitized mouse asthma model, BAL cell counts. Format: in vivo, Balb/c mice. How it is done:
(§2) Groups of Balb/c mice were sensitized by intra-peritoneal injection of 20 μg OVA protein (chicken egg albumin; Sigma-Aldrich) emulsified in 2 mg aluminum hydroxide in PBS. After 4 weeks, challenge doses of 1.5%/50 μl OVA were administered intranasally. The challenge was performed daily for 3 consecutive days and then the mice assessed for allergic inflammation of the lungs 24 h after the last aerosol exposure. Groups of mice were treated with various concentrations of DMPP during the challenge period. Broncho-alveolar lavage (BAL) was performed and the fluid centrifuged at 400 g to separate cells from liquid.
Ovalbumin-sensitized mice (n=8) were challenged with the allergen and simultaneously treated intra-nasally with increasing concentrations of ASM-002 (0.5 to 4 mg/kg/d) for 3 days. The number of cells recovered by broncho-alveolar lavage was used as a measure of lung inflammation.

In assay [5] the test system is CD80 expression on AMJ2-C11 cells. The experiment in a line: B7 (CD80) molecule expression on AMJ2-C11 cells. Format: cell-based, mouse. The following applies: 40 μM for 48 h. The protocol:
The effects of nicotine and DMPP on B7 (CD80) molecule expression were tested in vitro. AMJ2-C11 cells (mouse alveolar macrophages, from the ATCC) were incubated with 40 μM nicotine or DMPP and stimulated with LPS (0.1 μg/ml) or SR antigen (50 μg/ml) for 48 hours.

A further assay deals with TNF. Kind of assay: TNF levels in BAL fluid of SR-instilled mice. The assay is classed as in vivo. The following applies: DMPP-treated mice, SR instillation. The source says: (§3) The Intranasal instillation of Saccharopolyspora rectivirgula (SR) antigens, the causative agent for farmer's lung, to mice, induces a prominent inflammatory response in the lung. Neutrophils are the first inflammatory cells recruited at the site of inflammation.

Assay [6] deals with lung resistance after metacholine challenge. Kind of assay: Airway hyper-reactivity / lung resistance to metacholine in asthmatic mice (FlexiVENT). Format: in vivo. As to conditions: 0.5 mg/kg intranasal DMPP. How it is done: Airway hyper-reactivity (AHR) in response to metacholine was measured in anesthetized, tracheotomized, ventilated mice using a computer-controlled ventilator (FlexiVENT™).
Increasing doses of metacholine (0 mg/kg-32.5 mg/kg) were administered through the jugular vein.
Lung response to a broncho-constrictive agent, metacholine, was measured by a Flexi-vent® apparatus. Ovalbumin-sensitized animals were treated intra-nasally with ASM-002 (4 mg/kg) during 3 days and 10 minutes prior to the metacholine challenge and compared to untreated OVA-sensitized animals. A negative control group of un-sensitized animals and a positive control group that received Salbutamol (Ventolin) 10 minutes before the metacholine challenge were also included.

For a further assay, the system named is IL-4 mRNA expression. Kind of assay: IL-4 mRNA expression induced by a 24 h LPS stimulation. As to conditions: LPS stimulation 24 h, 40 to 160 μM. The assay is classed as cell-based. How it is done: The effect of agonist treatment on mRNA expression of IL-4, a cytokine that is well known to be involved in the development of asthma, was also tested (53). […] Cells were treated with different doses (40 to 160 μM for both nicotine and DMPP).

Assay [7] concerns IFN-γ mRNA in T lymphocytes isolated from BAL. The experiment in a line: IFN-γ mRNA in PHA-stimulated BAL lymphocytes from HP patients. Format: cell-based, human. The protocol: Since one goal was to treat patients with DMPP or similar drugs, the effect of this drug was verified on lymphocytes from patients with HP. BAL were performed on patients with HP. Lymphocytes were isolated from the other BAL cells, stimulated with PHA and incubated with DMPP. The dose-response of DMPP were tested on cytokine mRNA production (by RT-PCR) for IFN-γ.

The next assay relates to IL-5. Kind of assay: BAL IL-5 levels in the ovalbumin mouse asthma model. Format: in vivo, Balb/c mice. The following applies: 0.5 mg/kg treated-group. How it is done:
as §2
The supernatants were used to determine lung IL-5 levels. The total, number of BAL cells and differential cell counts were evaluated.

The subject of assay [8] is CD86 expression on alveolar macrophages. The experiment in a line: CD86 expression in SR-stimulated BAL cells of a normal patient. The assay is classed as cell-based, human. How it is done:
A broncho-alveolar lavage was performed on a normal patient, and alveolar macrophages were isolated.

In assay [9] the test system is TNF-α mRNA expression in AMJ2-C11 cells. Kind of assay: TNF-α mRNA expression by RT-PCR in AMJ2-C11 cells. The assay is classed as cell-based, mouse. The following applies: SR-stimulated 24 h, 40 and 80 μM. The protocol: as §1
Assay [10] deals with SR-induced inflammation in mice. Kind of assay: Short term SR-induced acute lung inflammation in mice, BAL cells. Format: in vivo.
Description: as §3

Regarding `C[N+]1(C)CCN(c2ccccc2)CC1` [DMPP, Dimethylphenylpiperazinium], the TNF release result in assay [1] was “inhibits TNF release”. Besides, in [2], the “collagen A1 gene expression” value was “inhibits collagen A1 gene expression in a dose-dependent manner”. The “reduction (drop) of IL-10 mRNA expression” value in [3] is 87% and 90%. The “eosinophils and lymphocytes in BAL” value in [4] (first dose response, all groups (n=8; p<0.05)) was “significantly reduced”. Moreover, the “total cell counts in BAL” value in assay [4] (intra-peritoneal DMPP, 0.5 and 2.0 mg/kg doses, OVA challenged mice) is recorded as “significantly reduced”. For the same compound, the “eosinophil and lymphocyte counts in BAL” value in assay [4] (second dose response, 0.1 and 0.5 mg/kg doses) is “significantly reduced”. Besides, the “most effective dose for the anti-inflammatory effect” value in assay [4] (second dose response, IP) is 0.5 mg/kg. Moreover, the “percentage of expression of CD80” value in [5] (LPS (0.1 μg/ml) stimulated, LPS alone 38%) amounted to 17%; in [5] (SR antigen (50 μg/ml) stimulated, SR alone 35%) it was 20%. In addition, the “BALF TNF levels” value with TNF is on record as “decreased significantly”. For the same compound, in [6] (metacholine 0-32.5 mg/kg), the “% of augmentation of lung resistance compared to asthmatic mice” value was “reduced”. The “PC200 (provocative challenge dose of 200% lung resistance augmentation) compared to asthmatic mice” value in [6] (p=0.04, n=6) was “significantly reduced”. The “IL-4 mRNA expression” value in the assay on IL-4 mRNA expression is listed as “completely blocked”. In addition, in assay [7], the “expression of IFN-γ mRNA” value is reported as “reduced expression of IFN-γ”. In addition, the “IL-5 levels in BAL” value in the assay with IL-5 is “significant inhibitory effect”. Moreover, in assay [8] (SR-stimulated BAL cells), the “less CD86 expressed than non-treated cells” value is 50%. In assay [8] (SR-stimulated alveolar macrophages), the “expression of CD86 relative to non-treated cells” value is on record as “about half of the expression”. The “reduction of TNF-α mRNA expression” value in [9] is “up to 60%”. Also, the “effect on SR-induced inflammation (BAL cells)” value in assay [10] (intra-nasal every 6 h, 24 h after SR, DMPP 0.5 mg/kg, nicotine 0.5 mg/kg, epibatidine 2 μg/kg) is given as “marked inhibitory effect”. Further, in assay [10] (number of mice increased to 15), the “effect on SR-induced lung inflammation compared to the non-treated group” value was “significant inhibition”.
